Key:
Experiment in all cases: selective drug sensitivity score (sDSS, relative to normal bone marrow) (sDSS (score)); higher = more potent and effective on the cell line relative to normal bone marrow cells
Conditions in all cases: 72 h
ALL-PO = test system: ALL-PO
CCRF-CEM = test system: CCRF-CEM
CCRF-HSB2 = test system: CCRF-HSB2
COG-LL-317 = test system: COG-LL-317
COG-LL-355h = test system: COG-LL-355h
DND-41 = test system: DND-41
KASUMI-9 = test system: KASUMI-9
KOPN-8 = test system: KOPN-8
LC4-1 = test system: LC4-1
MHH-CALL-2 = test system: MHH-CALL-2
MHH-CALL-3 = test system: MHH-CALL-3
MHH-CALL-4 = test system: MHH-CALL-4
MOLT-14 = test system: MOLT-14
NALL-1 = test system: NALL-1
NALM-16 = test system: NALM-16
P12-ICHIKAWA = test system: P12-ICHIKAWA
PF-382 = test system: PF-382
RPMI-8402 = test system: RPMI-8402
SEM cells = test system: SEM cells
TANOUE = test system: TANOUE
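Further: ALL cell lines in 384-well plates, five doses spanning 10,000-fold, each plate scaled between vehicle and 100 µmol/L benzalkonium chloride controls, sDSS an adapted area-under-curve metric.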

Structure (SMILES) | selective drug sensitivity score (ALL-PO) | selective drug sensitivity score (CCRF-CEM) | selective drug sensitivity score (CCRF-HSB2) | selective drug sensitivity score (COG-LL-317) | selective drug sensitivity score (COG-LL-355h) | selective drug sensitivity score (DND-41) | selective drug sensitivity score (KASUMI-9) | selective drug sensitivity score (KOPN-8) | selective drug sensitivity score (LC4-1) | selective drug sensitivity score (MHH-CALL-2) | selective drug sensitivity score (MHH-CALL-3) | selective drug sensitivity score (MHH-CALL-4) | selective drug sensitivity score (MOLT-14) | selective drug sensitivity score (NALL-1) | selective drug sensitivity score (NALM-16) | selective drug sensitivity score (P12-ICHIKAWA) | selective drug sensitivity score (PF-382) | selective drug sensitivity score (RPMI-8402) | selective drug sensitivity score (SEM cells) | selective drug sensitivity score (TANOUE)
CNC(=O)CN1CCC(Oc2cc3c(Nc4cccc(Cl)c4F)ncnc3cc2OC)CC1 [Sapitinib] (top concentration 1000 nM) | 0 | 0 | 3.3 | 0 | 0 | 0 | 0 | 0 | 0 | 0 | 0.1 | 0 | 0 | 0 | 0 | 0 | 0 | 0 | 0 | 0
CC[C@@H](C(=O)[C@@H](C)[C@@H](O)[C@H](C)[C@@H]1O[C@@H]([C@@H](CC)C(=O)O)CC[C@@H]1C)[C@H]1O[C@]2(C=C[C@@H](O)[C@]3(CC[C@@](C)([C@H]4CC[C@](O)(CC)[C@H](C)O4)O3)O2)[C@H](C)C[C@@H]1C [Salinomycin] (top concentration 50000 nM) | -13.2 | 2 | 0.9 | -2.2 | -3.1 | 4.7 | -11.4 | -8.4 | -10.9 | 10.8 | -3.3 | 8.5 | 6.3 | 2.2 | 0.3 | -2 | -5.4 | 10.1 | -5.8 | -7.5
COc1cc([C@@H]2c3cc4c(cc3[C@@H](O[C@@H]3O[C@@H]5CO[C@@H](c6cccs6)O[C@H]5[C@H](O)[C@H]3O)[C@H]3COC(=O)[C@H]23)OCO4)cc(OC)c1O [Teniposide] (top concentration 10000 nM) | 0 | 0 | 0 | 0 | 0 | 0 | 0 | 0 | 0 | 0 | 0 | 0 | 0 | 0 | 0 | 0 | 0 | 0 | 0 | 0
Nc1nc(OCc2cc(Br)cs2)c2[nH]cnc2n1 [Lomeguatrib] (top concentration 10000 nM) | 0.5 | 0 | 0 | 0 | 1 | 0 | 0 | 0 | 0.8 | 0 | 0 | 0 | 0 | 0 | 0 | 0 | 0 | 0 | 0 | 0
CCOC(=O)C1=CCCC[C@H]1S(=O)(=O)Nc1ccc(F)cc1Cl [Resatorvid] (top concentration 10000 nM) | 0 | 0 | 0 | 0 | 0 | 0 | 0 | 0.2 | 0 | 0 | 0 | 0 | 0 | 0 | 0 | 0 | 0 | 0 | 0 | 0
O=C(c1cc(Cc2n[nH]c(=O)c3ccccc23)ccc1F)N1CCN(C(=O)C2CC2)CC1 [Olaparib] (top concentration 10000 nM) | -0.12 | 3.78 | 3.98 | 13 | 3.38 | 1.28 | 4.98 | 9.68 | 2.68 | 8.88 | 21.9 | 8.68 | 10.4 | 1.28 | -3.42 | -0.82 | -0.52 | -0.02 | 5.18 | -3.42
CCn1c(-c2nonc2N)nc2cnc(Oc3cccc(NC(=O)c4ccc(OCCN5CCOCC5)cc4)c3)cc21 (top concentration 10000 nM) | -2.14 | 15.8 | 13.6 | 7.46 | -2.34 | 0.86 | 11.6 | 11.3 | 17 | 8.36 | -2.34 | 10.4 | 2.46 | 8.46 | -5.44 | 17.1 | 1.66 | 7.66 | 9.36 | -5.44

Source: the supplement of paper PMC8967900
